Data on 2 compounds can be found in US4777269A, “7-Phenylacetic acid-4-alkyl-coumarinyl amides useful in fluorometric determination of the activity of hydrolases” (European Atomic Energy Community, priority 1986, dated 1988).

Series [1] in a line: Solubility of the substrates in aqueous solution / buffer. In kind it is physicochemical. As to the method: The values for the PFC test are easily reproduceable since the solution of the substrate (5% ethanol) can be prepared more accurately. For the preparation of solutions of the substrate without ethanol about 24 hours are need to dissolve 1 mg of the substrate in 1 l of the buffer. The fluorometric test is particularly suited for the determination of low activities of penicillin G-acylase.
The yields obtained in the preparation of the 7-phenylacetic acid-4-alkyl-coumarinyl amides of the invention, in particular of PFC and PMC, were in the range of from 50 to 80% at a high product purity (NMR, IR). […] However, this problem may be overcome by dissolving the substrate at first in pure ethanol and then diluting it with the corresponding buffer to a mixture with 5% ethanol. In this manner concentrations of 6 mg/l can be achieved.

In the next series the target is penicillin G-acylase (Escherichia coli, UniProt P06875). The experiment in a line: Kinetic study of enzymatic cleavage of the coumarinyl amides (Lineweafer-Burg-plot), fluorometric test. In kind it is biochemical. Particulars: enzyme concentration constant, substrate concentration varied, 50 mM K-P-buffer, 5% ethanol. As to the method:
During the tests it has been observed repeatedly that the conversion rate of the reaction decreases at higher substrate concentrations. Therefore, research work for the determination of the kinetic parameters (Vmax and KM) of this reaction system had to be carried out.
The enzyme concentration in the test was kept constant and the substrate concentration (50 mM K-P-buffer 5% ethanol for both substrates) was varied.
The test mixture contains 3 μg/ml of the coumarinyl derivative as obtained in example 1, dissolved in 50 mM of a potassium-phosphate-buffer (pH 8, 5% ethanol).
At first a solution of the coumarinyl derivative in ethanol is prepared and diluted with the phosphate buffer according to the concentration values. 3 ml of the mixture are measured in a fluorescence cuvette in a spectral fluorometer (λ=440 nm for PMC; λ=495 nm for PFC) in regard to the background signal.
The reaction is started (while stirring) by the addition of 10 to 100 μl of the sample and followed. The activity of the enzyme can be estimated from the linear initial increase of the fluorescence/time-diagram after a corresponding calibration has been made.

Setting [2] is: aqueous solution, aqueous solutions, without ethanol, read-out: solubility in aqueous solutions.
The mark [3] stands for this setting: buffer with 5% ethanol, organic solvent or mixture, buffer mixture with 5% ethanol, read-out: achievable concentration after dissolving in pure ethanol and diluting with buffer.

Structures are written as SMILES. ≈ marks a conversion by molar mass, not a printed value. Read-outs that look alike come from different tables or passages of the source.

penicillin G-acylase, sequence (P06875 290-846): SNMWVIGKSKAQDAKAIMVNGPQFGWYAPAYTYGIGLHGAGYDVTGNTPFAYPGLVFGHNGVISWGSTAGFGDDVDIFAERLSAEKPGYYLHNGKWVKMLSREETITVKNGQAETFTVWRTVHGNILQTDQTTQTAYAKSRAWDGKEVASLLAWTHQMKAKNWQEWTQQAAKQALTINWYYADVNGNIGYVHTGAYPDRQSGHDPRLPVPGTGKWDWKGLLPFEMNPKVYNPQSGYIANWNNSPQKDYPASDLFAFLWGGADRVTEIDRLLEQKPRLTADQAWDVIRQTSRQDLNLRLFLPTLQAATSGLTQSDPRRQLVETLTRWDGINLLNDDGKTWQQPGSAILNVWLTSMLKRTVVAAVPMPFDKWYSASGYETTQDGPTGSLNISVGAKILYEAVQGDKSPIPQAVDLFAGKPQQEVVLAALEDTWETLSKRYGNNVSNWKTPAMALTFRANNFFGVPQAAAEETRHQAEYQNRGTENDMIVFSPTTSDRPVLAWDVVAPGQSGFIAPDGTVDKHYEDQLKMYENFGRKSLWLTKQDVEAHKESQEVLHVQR
penicillin G-acylase, sequence (P06875 27-235): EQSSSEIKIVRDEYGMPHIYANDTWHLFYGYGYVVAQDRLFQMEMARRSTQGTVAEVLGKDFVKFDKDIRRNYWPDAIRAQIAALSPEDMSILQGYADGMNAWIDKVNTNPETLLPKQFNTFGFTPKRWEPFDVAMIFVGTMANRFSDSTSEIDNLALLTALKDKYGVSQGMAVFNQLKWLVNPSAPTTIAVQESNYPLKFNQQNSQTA

Turning to `O=C(Cc1ccccc1)Nc1ccc2c(C(F)(F)F)cc(=O)oc2c1` [PFC, 7-phenyl-acetic acid-4-trifluoromethyl-coumarinyl amide], the solubility in series [1] (setting [2]) was less than 1 µg/mL; in series [1] (setting [3]), 6 µg/mL (≈ 17.3 µM). Further, on penicillin G-acylase, the “kinetic behaviour at higher substrate concentrations” value is “substrate inhibition”.

Turning to `Cc1cc(=O)oc2cc(NC(=O)Cc3ccccc3)ccc12` [PMC, 7-phenylacetic acid-4-methylcoumarinyl amide], the figures for the solubility in series [1] (setting [2]) and in series [1] (setting [3]) were less than 1 µg/mL and 6 µg/mL (≈ 20.5 µM), respectively. Besides, at penicillin G-acylase, the “kinetic behaviour at higher substrate concentrations” value is on record as “substrate inhibition”.
